Assay results as given in the NIST ThermoML archive (doi:10.1016/j.jct.2015.09.002).

Test: xn = mol fraction of the nth substance listed
Conditions: 93.2 kPa, Liquid, Vibrating tube method

CCCCN [1-butanamine] + CC#N
mass density [kg/m3]
Conditions	293.15 K	298.15 K	303.15 K	308.15 K
x2 = 0	737.12	732.33	727.51	722.66
x2 = 0.0102	737.48	732.7	727.88	723.03
x2 = 0.0229	737.89	733.1	728.28	723.42
x2 = 0.0481	738.62	733.83	729.01	724.14
x2 = 0.0616	738.99	734.2	729.37	724.51
x2 = 0.2006	742.87	738.04	733.19	728.3
x2 = 0.35	747.75	742.84	737.89	732.98
x2 = 0.4	749.52	744.61	739.64	734.69
x2 = 0.4503	751.36	746.43	741.47	736.49
x2 = 0.5007	753.36	748.41	743.43	738.41
x2 = 0.5489	755.38	750.41	745.4	740.35
x2 = 0.6002	757.66	752.67	747.61	742.54
x2 = 0.6492	759.99	754.96	749.88	744.78
x2 = 0.6998	762.57	757.51	752.4	747.24
x2 = 0.7488	765.21	760.11	754.97	749.77
x2 = 0.7997	768.18	763.02	757.82	752.57
x2 = 0.85	771.3	766.08	760.83	755.54
x2 = 0.9004	774.67	769.4	764.09	758.76
x2 = 0.9188	775.96	770.66	765.33	759.98
x2 = 0.9498	778.23	772.9	767.54	762.15
x2 = 0.96	779.01	773.67	768.29	762.89
x2 = 0.9694	779.73	774.38	769	763.59
x2 = 0.9804	780.56	775.21	769.81	764.38
x2 = 0.9892	781.24	775.87	770.46	765.03

CC(C)(C)N [2-methyl-2-propanamine] + CC#N
mass density [kg/m3]
Conditions	293.15 K	298.15 K	303.15 K	308.15 K
x2 = 0	692.06	686.65	681.18	675.66
x2 = 0.009	692.79	687.38	681.92	676.4
x2 = 0.0205	693.46	688.06	682.61	677.1
x2 = 0.0313	694.05	688.66	683.22	677.72
x2 = 0.0421	694.67	689.29	683.85	678.36
x2 = 0.0536	695.33	689.95	684.53	679.04
x2 = 0.0625	695.85	690.48	685.06	679.59
x2 = 0.0694	696.27	690.86	685.44	679.97
x2 = 0.0801	696.87	691.5	686.09	680.61
x2 = 0.0874	697.28	691.92	686.51	681.05
x2 = 0.1006	698.07	692.74	687.34	681.89
x2 = 0.1489	701.01	695.71	690.34	684.92
x2 = 0.2023	704.54	699.21	693.83	688.43
x2 = 0.2493	707.7	702.41	697.06	691.72
x2 = 0.3021	711.23	705.97	700.63	695.28
x2 = 0.3487	714.58	709.33	704	698.63
x2 = 0.3998	718.28	713.06	707.73	702.38
x2 = 0.4489	721.98	716.77	711.44	706.12
x2 = 0.501	726.15	720.91	715.64	710.33
x2 = 0.5485	730.26	725.04	719.77	714.47
x2 = 0.6009	735.01	729.79	724.53	719.22
x2 = 0.6494	739.58	734.35	729.08	723.75
x2 = 0.6932	743.94	738.74	733.46	728.14
x2 = 0.7494	749.81	744.57	739.28	733.95
x2 = 0.8001	755.58	750.29	744.99	739.64
x2 = 0.8497	761.5	756.2	750.87	745.51
x2 = 0.8984	767.7	762.38	757.02	751.64
x2 = 0.9093	769.13	763.81	758.46	753.06
x2 = 0.9202	770.57	765.25	759.88	754.48
x2 = 0.9292	771.83	766.5	761.11	755.72
x2 = 0.9401	773.34	768	762.61	757.2
x2 = 0.9501	774.73	769.38	763.99	758.56
x2 = 0.9599	776.15	770.78	765.38	759.96
x2 = 0.9699	777.57	772.2	766.79	761.36
x2 = 0.9795	778.96	773.59	768.17	762.72
x2 = 0.9892	780.39	775.01	769.59	764.14

CCCCNCCCC [dibutylamine] + CC#N
mass density [kg/m3]
Conditions	293.15 K	298.15 K	303.15 K	308.15 K
x2 = 0	759.7	755.61	751.5	747.38
x2 = 0.0695	760.49	756.33	752.17	748
x2 = 0.081	760.6	756.44	752.27	748.08
x2 = 0.1023	760.85	756.68	752.5	748.3
x2 = 0.1527	761.32	757.12	752.9	748.66
x2 = 0.2029	761.82	757.58	753.32	749.05
x2 = 0.2499	762.19	757.95	753.65	749.34
x2 = 0.2996	762.67	758.39	754.06	749.71
x2 = 0.3542	763.23	758.88	754.51	750.12
x2 = 0.3978	763.73	759.35	754.95	750.52
x2 = 0.47	764.62	760.17	755.7	751.19
x2 = 0.4987	764.98	760.52	756.02	751.49
x2 = 0.5498	765.74	761.23	756.67	752.09
x2 = 0.6001	766.63	762.05	757.43	752.78
x2 = 0.6499	767.62	762.97	758.29	753.59
x2 = 0.6991	768.71	763.99	759.24	754.46
x2 = 0.7496	770.07	765.28	760.44	755.59
x2 = 0.8	771.64	766.75	761.82	756.87
x2 = 0.8494	773.46	768.5	763.47	758.42
x2 = 0.8994	775.72	770.63	765.48	760.32
x2 = 0.9293	777.27	772.08	766.87	761.62
x2 = 0.9394	777.86	772.65	767.41	762.14
x2 = 0.9498	778.5	773.27	768	762.7
x2 = 0.9596	779.13	773.86	768.55	763.23
x2 = 0.9699	779.82	774.53	769.19	763.83
x2 = 0.9799	780.54	775.22	769.85	764.46
x2 = 0.9897	781.26	775.91	770.51	765.09

CCCNCCC [dipropylamine] + CC#N
mass density [kg/m3]
Conditions	293.15 K	298.15 K	303.15 K	308.15 K
x2 = 0	738.18	733.64	729.07	724.48
x2 = 0.0106	738.6	734.04	729.47	724.87
x2 = 0.0215	738.86	734.31	729.71	725.09
x2 = 0.0323	739.1	734.53	729.92	725.29
x2 = 0.0406	739.28	734.72	730.09	725.48
x2 = 0.0507	739.51	734.94	730.32	725.71
x2 = 0.0605	739.75	735.16	730.53	725.91
x2 = 0.0684	739.93	735.34	730.7	726.08
x2 = 0.0801	740.21	735.61	730.96	726.32
x2 = 0.0926	740.51	735.91	731.26	726.61
x2 = 0.101	740.71	736.11	731.45	726.79
x2 = 0.1493	741.88	737.23	732.56	727.89
x2 = 0.2009	743.16	738.47	733.79	729.06
x2 = 0.2547	744.47	739.78	735.06	730.34
x2 = 0.3001	745.65	740.94	736.2	731.45
x2 = 0.3514	747.06	742.32	737.55	732.77
x2 = 0.3995	748.45	743.68	738.88	734.07
x2 = 0.4556	750.19	745.39	740.57	735.71
x2 = 0.5008	751.71	746.88	742.02	737.15
x2 = 0.551	753.52	748.66	743.77	738.86
x2 = 0.6037	755.61	750.71	745.77	740.81
x2 = 0.6481	757.56	752.63	747.66	742.67
x2 = 0.6992	760.02	755.04	750.02	744.98
x2 = 0.7495	762.68	757.65	752.58	747.48
x2 = 0.7997	765.7	760.61	755.49	750.33
x2 = 0.8496	769.02	763.85	758.66	753.43
x2 = 0.9002	772.87	767.63	762.35	757.05
x2 = 0.9092	773.6	768.35	763.04	757.76
x2 = 0.9194	774.47	769.22	763.9	758.59
x2 = 0.9298	775.37	770.09	764.79	759.45
x2 = 0.9492	777.14	771.83	766.49	761.13
x2 = 0.9697	779.11	773.75	768.36	762.97
x2 = 0.9892	781.03	775.63	770.22	764.78
